In patent US20020173468A1, “MODIFIED CYTOSTATIC AGENTS” (priority 1996, published 2002):
Several values for one entry are separate records, joined by “and”; a condition that tells them apart may be missing. Equal values may be shown once.

Key:
[1] = system: HT 29 human colonic tumour cell line; assay: Growth inhibition test (MTT) for cytotoxic properties, HT 29; assay type: cell-based; settings: HT 29 cells
Protocol: (§1) 1. Growth Inhibition Test for the Determination of Cytotoxic Properties
(§2) They were then trypsinized and taken up in RPMI plus 10% FCS to give a cell count of 50,000 cells/ml. 100 μl of cell suspension/well were added to a 96 microwell plate and incubated for 1 day at 37° C. in a CO2 incubator. A further 100 μl of RPMI medium and 1 μl of DMSO were then added with the test substances. The growth was checked after day 3 and day 6. To do this, 40 μl of MTT solution (3-(4,5-dimethylthiazol-2-yl)-2,5-diphenyl-tetrazolin bromide) were added to each microwell at a starting concentration of 5 mg/ml of H2O. Incubation was carried out at 37° C. for 5 hours in the CO2 incubator. The medium was then aspirated and 100 μl of i-propanol/well were added. After shaking for 30 min with 100 μl of H2O, the extinction was measured at 540 nm using a Titertek Multiskan MCC/340 (flow).
(§3) The cytotoxic action is indicated in Table 1 as an IC50 value in each case for the SW 480 and HT 29 and B16F10 cell lines: […]

[2] = system: B16F10 mouse melanoma cell line; assay: Growth inhibition test (MTT) for cytotoxic properties, B16F10; assay type: cell-based; settings: B16F10 cells
Protocol: as §1, §2, §3

[3] = system: large-cell human lung tumour xenograft LXFL 529; assay: In-vivo inhibition of tumour growth in the nude mouse model; parameters: species or system athymic nude mice (NMRI nu/nu strain); settings: for Relative tumour volume on day 21: control 1137; for Survival time: individual animals
From the text: 3. In-vivo Inhibition of Tumour Growth in the Nude Mouse Model
For all in-vivo experiments for investigation of the inhibition of tumour growth, athymic nude mice (NMRI nu/nu strain) were used. The selected large-cell lung carcinoma LXFL 529 was developed by serial passage in nude mice. The human origin of the tumour was confirmed by isoenzymatic and immunohistochemical methods.
The tumour was implanted subcutaneously in both flanks of nu/nu nude mice 6 to 8 weeks old. The treatment was started, depending on the doubling time, as soon as the tumours had reached a diameter of 5-7 mm. The mice were assigned to the treatment group and to the control group (5 mice per group with 8-10 assessable tumours) by randomization. The individual tumours of the control group all grew progressively.
The size of the tumours was measured in two dimensions by means of a slide gauge. The tumour volume, which correlated well with the cell count, was then used for all evaluations. The volume was calculated according to the formula “length×breadth×breadth/2” ([a×b^2]/2, a and b represent two diameters arranged at right angles).
The values of the relative tumour volume (RTV) were calculated for each individual tumour by dividing the tumour size on day X by the tumour size on day 0 (at the time of randomization). The mean values of the RTV were then used for further evaluation.
The inhibition of the increase in the tumour volume (tumour volume of the test group/control group, T/C, in per cent) was the final measured value.
The administration of the compounds was carried out intraperitoneally (i.p.) on days 1, 2 and 3 after randomization.

[4] = system: mouse bone marrow stem cells; assay: Inhibition of the CSF-induced proliferation of mouse bone marrow stem cells (colony formation); assay type: cell-based; settings: recombinant murine GM-CSF, 7 days
Protocol: 2. Haematopoietic Activity of Conjugates in Comparison with the Basic Active Compound
Bone marrow cells were rinsed from mouse femurs. 10^5 cells were incubated in McCoy 5A medium (0.3% agar) together with recombinant murine GM-CSF (Genzyme; stem cell colony formation) and the substances (10^−4 to 100 μg/ml) at 37° C. and 7% CO2. 7 days later, the colonies ([…]50 cells) and clusters (17-50 cells) were counted.

[5] = system: SW 480 human colonic tumour cell line; assay: Growth inhibition test (MTT) for cytotoxic properties, SW 480; assay type: cell-based; settings: SW 480 cells
Protocol: as §1, §2, §3

[6] = 6.25 mg/kg/day (MTD) i.p. days 1-3

With `CC[C@@]1(OC(=O)[C@@H](NC(=O)[C@H](CCCCN)NC(=S)Nc2ccc(O)cc2)C(C)C)C(=O)OCc2c1cc1n(c2=O)Cc2cc3ccccc3nc2-1.Cl` [Example 4.4), 20-O-[N^α-(4-Hydroxy-phenylamino-thiocarbonyl)-lysyl-valyl]-camptothecin, hydrochloride] the IC50 [1] was 200 nM, the IC50 [2] was 600 nM and the “Relative body weight on day 21” value ([3]; 3.125 mg/kg/day i.p. days 1-3) was 105.8 % of day 0. For the same molecule, the “Relative tumour volume on day 21” value ([3]; 3.125 mg/kg/day i.p. days 1-3) was 69.5 % of day 0, the Survival time ([3]; 3.125 mg/kg/day i.p. days 1-3) was >43 >43 days and the “Relative body weight on day 21” value [3, 6] was 113.0 % of day 0. The “Relative tumour volume on day 21” value [3, 6] was 0.2 % of day 0, the Survival time ([3]; 6.25 mg/kg/day (MTD) i.p. days 1-3, hydrochloride) was 7 days and > 43 days and >43 >43 days and the “Maximum tolerable dose (MTD)” value ([3]; i.p. on days 1, 2 and 3, nude mice) was 6.25 mg/kg/day. For the same molecule, the “Therapeutic efficacy against LXFL 529 xenograft (in words)” value ([3]; therapy at the MTD and at half the MTD) was “tumour remission”, the “IC50, inhibition of the CSF-induced proliferation of mouse bone marrow stem cells” value [4] was 0.01 µg/mL and the IC50 [5] was 300 nM.
